Test results reported in PubChem BioAssay (NCI).
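All cell lines were grown in 96-well plates and treated with compound for 48 hours. GI50 marks 50% less growth. TGI marks complete inhibition of growth.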

Key:
Experiment in all cases: NCI-60 cell line screen, 48 h
K-562 leukemia = system: K-562 leukemia
KM12 colon = system: KM12 colon
SK-MEL-2 melanoma = system: SK-MEL-2 melanoma
NCI-H226 lung = system: NCI-H226 lung
SK-MEL-28 melanoma = system: SK-MEL-28 melanoma
OVCAR-4 ovarian = system: OVCAR-4 ovarian
UO-31 renal = system: UO-31 renal
MDA-N = system: MDA-N
RPMI-8226 leukemia = system: RPMI-8226 leukemia
786-0 renal = system: 786-0 renal
HCT-15 colon = system: HCT-15 colon
SF-268 CNS = system: SF-268 CNS
PC-3 prostate = system: PC-3 prostate
HL-60(TB) leukemia = system: HL-60(TB) leukemia
SK-MEL-5 melanoma = system: SK-MEL-5 melanoma
CCRF-CEM leukemia = system: CCRF-CEM leukemia
HCC-2998 colon = system: HCC-2998 colon
MOLT-4 leukemia = system: MOLT-4 leukemia
A549 NSCLC = system: A549 NSCLC
TK-10 renal = system: TK-10 renal
SNB-75 CNS = system: SNB-75 CNS
MDA-MB-231 breast = system: MDA-MB-231 breast
ACHN renal = system: ACHN renal
HCT-116 colon = system: HCT-116 colon
MALME-3M melanoma = system: MALME-3M melanoma
MDA-MB-435 = system: MDA-MB-435
SK-OV-3 ovarian = system: SK-OV-3 ovarian
DU-145 prostate = system: DU-145 prostate
U251 CNS = system: U251 CNS
SNB-19 CNS = system: SNB-19 CNS
HT29 colon = system: HT29 colon
OVCAR-3 ovarian = system: OVCAR-3 ovarian
HOP-92 NSCLC = system: HOP-92 NSCLC
M14 melanoma = system: M14 melanoma
BT-549 breast = system: BT-549 breast
NCI-H23 lung = system: NCI-H23 lung
OVCAR-5 ovarian = system: OVCAR-5 ovarian
HS 578T breast = system: HS 578T breast
SF-295 CNS = system: SF-295 CNS
MCF7 breast = system: MCF7 breast
NCI/ADR-RES ovarian = system: NCI/ADR-RES ovarian
SR leukemia = system: SR leukemia
OVCAR-8 ovarian = system: OVCAR-8 ovarian
RXF 393 renal = system: RXF 393 renal
UACC-257 melanoma = system: UACC-257 melanoma
SN12C renal = system: SN12C renal
NCI-H522 lung = system: NCI-H522 lung
LOX IMVI melanoma = system: LOX IMVI melanoma
IGROV1 ovarian = system: IGROV1 ovarian
UACC-62 melanoma = system: UACC-62 melanoma
SF-539 CNS = system: SF-539 CNS
COLO 205 colon = system: COLO 205 colon
CAKI-1 renal = system: CAKI-1 renal
T-47D breast = system: T-47D breast
SW-620 colon = system: SW-620 colon
A498 renal = system: A498 renal
NCI-H460 lung = system: NCI-H460 lung
HOP-62 NSCLC = system: HOP-62 NSCLC

## CN(C)CCOc1ccc2[nH]c(C(=O)N3CC(CCl)c4c3cc(N)c3ccccc43)cc2c1 (stereo not given)
K-562 leukemia
  TGI: > 4640 nM
KM12 colon
  TGI: < 10 nM
SK-MEL-2 melanoma
  TGI: < 10 nM
NCI-H226 lung
  TGI: < 10 nM
SK-MEL-28 melanoma
  TGI: < 10 nM
OVCAR-4 ovarian
  TGI: 1180 nM
UO-31 renal
  TGI: < 10 nM
MDA-N
  TGI: < 10 nM
RPMI-8226 leukemia
  TGI: < 10 nM
786-0 renal
  TGI: < 10 nM
HCT-15 colon
  TGI: > 46900 nM
SF-268 CNS
  TGI: > 4640 nM
PC-3 prostate
  TGI: 3660 nM
HL-60(TB) leukemia
  TGI: > 100000 nM
SK-MEL-5 melanoma
  TGI: < 10 nM
CCRF-CEM leukemia
  TGI: > 100000 nM
HCC-2998 colon
  TGI: < 10 nM
MOLT-4 leukemia
  TGI: < 10 nM
A549 NSCLC
  TGI: 13200 nM
TK-10 renal
  TGI: > 4640 nM
SNB-75 CNS
  TGI: < 215 nM
MDA-MB-231 breast
  TGI: > 100000 nM
ACHN renal
  TGI: < 10 nM
HCT-116 colon
  TGI: 3630 nM
MALME-3M melanoma
  TGI: < 10 nM
MDA-MB-435
  TGI: < 10 nM
SK-OV-3 ovarian
  TGI: < 10 nM
DU-145 prostate
  TGI: 52.5 nM
U251 CNS
  TGI: 1100 nM
SNB-19 CNS
  TGI: 202 nM
HT29 colon
  TGI: 1710 nM
OVCAR-3 ovarian
  TGI: < 10 nM
HOP-92 NSCLC
  TGI: < 10 nM
M14 melanoma
  TGI: > 100000 nM
BT-549 breast
  TGI: 1640 nM
NCI-H23 lung
  TGI: < 10 nM
OVCAR-5 ovarian
  TGI: > 100000 nM

## COc1cc(NS(C)(=O)=O)ccc1Nc1c2ccc([N+](=O)[O-])cc2nc2c(C)cccc12
K-562 leukemia
  GI50: 801 nM
  TGI: 9890 nM
HS 578T breast
  GI50: 1960 nM
  TGI: 22300 nM
KM12 colon
  GI50: 814 nM
  TGI: 8150 nM
SF-295 CNS
  GI50: 171 nM
  TGI: 11100 nM
SK-MEL-2 melanoma
  GI50: 4070 nM
  TGI: 16100 nM
MCF7 breast
  GI50: 13.3 nM
  TGI: 12200 nM
NCI-H226 lung
  GI50: 338 nM
  TGI: 4160 nM
SK-MEL-28 melanoma
  GI50: 2730 nM
  TGI: 17400 nM
OVCAR-4 ovarian
  GI50: 3320 nM
  TGI: 19100 nM
NCI/ADR-RES ovarian
  GI50: 6950 nM
  TGI: 35100 nM
UO-31 renal
  GI50: 1220 nM
  TGI: 11400 nM
RPMI-8226 leukemia
  GI50: 180 nM
  TGI: 1990 nM
SR leukemia
  GI50: < 12 nM
  TGI: 5820 nM
786-0 renal
  GI50: 362 nM
  TGI: 6040 nM
HCT-15 colon
  GI50: 1380 nM
  TGI: 4320 nM
SF-268 CNS
  GI50: 256 nM
  TGI: 13100 nM
PC-3 prostate
  GI50: 1100 nM
  TGI: 9100 nM
HL-60(TB) leukemia
  GI50: 302 nM
  TGI: 3570 nM
OVCAR-8 ovarian
  GI50: 1080 nM
  TGI: 14000 nM
SK-MEL-5 melanoma
  GI50: 194 nM
  TGI: 1810 nM
RXF 393 renal
  GI50: 1650 nM
  TGI: 6350 nM
CCRF-CEM leukemia
  GI50: 158 nM
  TGI: 3400 nM
HCC-2998 colon
  GI50: 2070 nM
  TGI: 7280 nM
MOLT-4 leukemia
  GI50: 40.9 nM
  TGI: 4370 nM
A549 NSCLC
  GI50: 34.5 nM
  TGI: 2340 nM
TK-10 renal
  GI50: 2070 nM
  TGI: 9350 nM
UACC-257 melanoma
  GI50: 1290 nM
  TGI: 14700 nM
SNB-75 CNS
  GI50: 311 nM
  TGI: 7480 nM
SN12C renal
  GI50: 175 nM
  TGI: 9260 nM
NCI-H522 lung
  GI50: 1070 nM
  TGI: 2900 nM
LOX IMVI melanoma
  GI50: 150 nM
  TGI: 2380 nM
IGROV1 ovarian
  GI50: 1450 nM
  TGI: 9360 nM
MDA-MB-231 breast
  GI50: 3820 nM
  TGI: 16400 nM
UACC-62 melanoma
  GI50: 377 nM
  TGI: 11100 nM
ACHN renal
  GI50: 371 nM
  TGI: 4290 nM
HCT-116 colon
  GI50: 361 nM
  TGI: 10700 nM
SF-539 CNS
  GI50: 241 nM
  TGI: 1970 nM
COLO 205 colon
  GI50: 2050 nM
  TGI: 13500 nM
MALME-3M melanoma
  GI50: 717 nM
  TGI: 7070 nM
MDA-MB-435
  GI50: 1670 nM
  TGI: 15000 nM
CAKI-1 renal
  GI50: 1130 nM
  TGI: 6940 nM
SK-OV-3 ovarian
  GI50: 891 nM
  TGI: 11500 nM
DU-145 prostate
  GI50: 133 nM
  TGI: 10700 nM
U251 CNS
  GI50: 214 nM
  TGI: 11200 nM
T-47D breast
  GI50: 117 nM
  TGI: 7680 nM
SNB-19 CNS
  GI50: 213 nM
  TGI: 14100 nM
SW-620 colon
  GI50: 349 nM
  TGI: 12200 nM
A498 renal
  GI50: 226 nM
  TGI: 2920 nM
HT29 colon
  GI50: 1410 nM
  TGI: 7100 nM
OVCAR-3 ovarian
  GI50: 1170 nM
  TGI: 9160 nM
NCI-H460 lung
  TGI: 1590 nM
HOP-92 NSCLC
  GI50: 111 nM
  TGI: 1680 nM
M14 melanoma
  GI50: 228 nM
  TGI: 11200 nM
HOP-62 NSCLC
  GI50: 107 nM
  TGI: 6370 nM
BT-549 breast
  GI50: 1450 nM
  TGI: 7450 nM
NCI-H23 lung
  GI50: 567 nM
  TGI: 9260 nM
OVCAR-5 ovarian
  GI50: 2870 nM
  TGI: 14400 nM
